Test results from patent US9273033B2, “Substituted pyridone derivatives as PDE10 inhibitors” (Merck Sharp & Dohme Corp., priority 2012, dated 2016).

These compounds were tested against human PDE10A2 (Homo sapiens (Human), UniProt Q9Y233) (assay: PDE10 fluorescence polarization (IMAP FP) inhibition assay). Conditions: human PDE10A2, FAM-labeled cAMP substrate, read-out: PDE10A Ki.
Type: biochemical
Protocol: The activity of the compounds in accordance with the present invention as PDE10 inhibitors may be readily determined without undue experimentation using a fluorescence polarization (FP) methodology that is well known in the art (Huang, W., et al., J. Biomol Screen, 2002, 7: 215).
In a typical experiment the PDE10 inhibitory activity of the compounds of the present invention was determined in accordance with the following experimental method. PDE10A2 was amplified from human fetal brain cDNA (Clontech, Mountain View, Calif.) using a forward primer corresponding to nucleotides 56-77 of human PDE10A2 (Accession No. AF127480, Genbank Identifier 4894716), containing a Kozak consensus sequence, and a reverse primer corresponding to nucleotides 2406-2413 of human PDE10A2 (Accession No. AF127480, Genbank Identifier 4894716). Amplification with Easy-A polymerase (Stratagene, La Jolla, Calif.) was 95° C. for 2 minutes followed by thirty three cycles of 95° C. for 40 seconds, 55° C. for 30 seconds, and 72° C. for 2 minutes 48 seconds. Final extension was 72° C. for 7 minutes. The PCR product was TA cloned into pcDNA3.2-TOPO (Invitrogen, Carlsbad, Calif.) according to standard protocol. AD293 cells with 70-80% confluency were transiently transfected with human PDE10A2/pcDNA3.2-TOPO using Lipofectamine 2000 according to manufacturer specifications (Invitrogen, Carlsbad, Calif.). Cells were harvested 48 hours post-transfection and lysed by sonication (setting 3, 10×5 sec pulses) in a buffer containing 20 mM HEPES, 1 mM EDTA and protease inhibitor cocktail (Roche). Lysate was collected by centrifugation at 75,000×g for 20 minutes. Supernatant containing the cytoplasmic fraction was used for evaluation of PDE10A2 activity. The fluorescence polarization assay for cyclic nucleotide phosphodiesterases was performed using an IMAP® FP kit supplied by Molecular Devices, Sunnyvale, Calif. (product # R8139). IMAPU technology has been applied previously to phosphodiesterase assays (Huang, W., et al., J. Biomol Screen, 2002, 7: 215). Assays were performed at room temperature in 384-well microtiter plates with an incubation volume of 20.2 μL. Solutions of test compounds were prepared in DMSO and serially diluted with DMSO to yield 8 μL of each of 10 solutions differing by 3-fold in concentration, at 32 serial dilutions per plate. 100% inhibition is determined using a known PDE10 inhibitor, which can be any compound that is present at 5,000 times its Ki value in the assay described as follows, such as papaverine (see Siuciak, et al. Neuropharmacology (2006) 51:386-396; Becker, et al. Behav Brain Res (2008) 186(2):155-60; Threlfell, et al., J Pharmacol Exp Ther (2009) 328(3):785-795), 2-{4-[pyridin-4-yl-1-(2,2,2-trifluoroethyl)-1H-pyrazol-3-yl]phenoxymethyl}quinoline succinic acid or 2-[4-(1-methyl-4-pyridin-4-yl-1H-pyrazol-3-yl)-phenoxymethyl]quinoline succinic acid (see Schmidt, et al. J Pharmacol Exp Ther (2008) 325:681-690; Threlfell, et al., J Pharmacol Exp Ther (2009) 328(3): 785-795). 0% of inhibition is determined by using DMSO (1% final concentrations).
A Labcyte Echo 555 (Labcyte, Sunnyvale, Calif.) is used to dispense 200 nL from each well of the titration plate to the 384 well assay plate. A solution of enzyme (1/1600 dilution from aliquots; sufficient to produce 20% substrate conversion) and a separate solution of FAM-labeled cAMP PDE from Molecular Devices (product # R7506), at a final concentration of 50 nM are made in the assay buffer (10 mM Tris HCl, pH 7.2, 10 mM MgCl2, 0.05% NaN3 0.01% Tween-20, and 1 mM DTT). The enzyme and the substrate are then added to the assay plates in two consecutive additions of 10 μL, and then shaken to mix. The reaction is allowed to proceed at room temperature for 30 minutes. A binding solution is then made from the kit components, comprised of 80% Solution A, 20% Solution B and binding reagent at a volume of 1/600 the total binding solution.

Chain of human PDE10A2 (Q9Y233 267-1055): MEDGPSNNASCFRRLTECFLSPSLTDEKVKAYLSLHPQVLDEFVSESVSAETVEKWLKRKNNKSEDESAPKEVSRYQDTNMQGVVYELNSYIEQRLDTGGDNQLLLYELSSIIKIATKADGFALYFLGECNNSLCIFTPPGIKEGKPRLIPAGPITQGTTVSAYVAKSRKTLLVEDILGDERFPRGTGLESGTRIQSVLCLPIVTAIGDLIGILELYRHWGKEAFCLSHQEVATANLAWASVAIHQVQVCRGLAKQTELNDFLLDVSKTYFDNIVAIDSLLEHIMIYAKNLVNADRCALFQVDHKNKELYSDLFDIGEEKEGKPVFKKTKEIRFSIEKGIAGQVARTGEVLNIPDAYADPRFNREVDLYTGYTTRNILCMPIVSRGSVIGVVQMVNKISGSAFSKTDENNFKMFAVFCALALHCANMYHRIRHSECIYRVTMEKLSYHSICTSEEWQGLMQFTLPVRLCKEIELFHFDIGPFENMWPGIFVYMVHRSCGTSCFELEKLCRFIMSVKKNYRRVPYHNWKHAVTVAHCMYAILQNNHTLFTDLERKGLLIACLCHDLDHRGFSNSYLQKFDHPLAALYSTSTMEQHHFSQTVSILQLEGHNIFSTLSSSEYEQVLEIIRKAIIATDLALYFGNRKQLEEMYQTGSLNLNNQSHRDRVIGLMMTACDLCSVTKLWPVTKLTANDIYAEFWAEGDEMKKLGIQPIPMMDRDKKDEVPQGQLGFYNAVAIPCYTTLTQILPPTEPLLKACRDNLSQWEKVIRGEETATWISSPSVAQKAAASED

| Ki | Compound |
| --- | --- |
| 1.56 nM | Cc1ccc([C@H]2C[C@@H]2COc2nc(C)ncc2-c2cc(C)n(C)c(=O)c2)nc1 [Example 86, 1,6-dimethyl-4-(2-methyl-4-(((1S,2S)-2-(5-methylpyridin-2-yl)cyclopropyl)methoxy)pyrimidin-5-yl)pyridin-2(1H)-one] |
| 2.15 nM | Cc1ccc([C@H]2C[C@@H]2COc2nc(C)ncc2-c2ccc(=O)n(CCC#N)c2)nc1 [Example 46, 3-(5-(2-methyl-4-(((1S,2S)-2-(5-methylpyridin-2-yl)cyclopropyl)methoxy)pyrimidin-5-yl)-2-oxopyridin-1(2H)-yl)propanenitrile] |
| 1.66 nM | [2H]C([2H])([2H])n1ccc(-c2cnc(C)nc2OC[C@H]2C[C@@H]2c2ccc(C)cn2)cc1=O [Example 125, 1-methyl-4-(2-methyl-4-(((1S,2S)-2-(5-methylpyridin-2-yl)cyclopropyl)methoxy)pyrimidin-5-yl)pyridin-2(1H)-one] |
| 10.8 nM | Cc1ncc(-c2ccn(C)c(=O)c2)c(OC[C@H]2C[C@@H]2c2ccccn2)n1 [Example 80, 1-methyl-4-(2-methyl-4-(((1S,2S)-2-(pyridin-2-yl)cyclopropyl)methoxy)pyrimidin-5-yl)pyridin-2(1H)-one] |
| 1.07 nM | CCn1cc(-c2cnc(C)nc2OC[C@H]2C[C@@H]2c2ccc(OC)cn2)ccc1=O [Example 24, 1-ethyl-5-(4-(((1S,2S)-2-(5-methoxypyridin-2-yl)cyclopropyl)methoxy)-2-methylpyrimidin-5-yl)pyridin-2(1H)-one] |
| 1.1 nM | Cc1ccc([C@H]2C[C@@H]2COc2nc(C)ncc2-c2ccc(=O)n(C(F)F)c2)nc1 [Example 14, 1-(difluoromethyl)-5-(2-methyl-4-(((1S,2S)-2-(5-methylpyridin-2-yl)cyclopropyl)methoxy)pyrimidin-5-yl)pyridin-2(1H)-one] |
| 0.041 nM | Cc1ncc(-c2cc(C)n(C)c(=O)c2)c(OC[C@H]2C[C@@H]2c2ccc3ccccc3n2)n1 [Example 97, 1,6-dimethyl-4-(2-methyl-4-(((1S,2S)-2-(quinolin-2-yl)cyclopropyl)methoxy)pyrimidin-5-yl)pyridin-2(1H)-one] |
| 27.5 nM | Cc1ncc(-c2ccn(C)c(=O)c2)c(OC[C@H]2C[C@@H]2c2ccc(F)cn2)n1 [Example 88, 4-(4-(((1S,2S)-2-(5-fluoropyridin-2-yl)cyclopropyl)methoxy)-2-methylpyrimidin-5-yl)-1-methylpyridin-2(1H)-one] |
| 1.81 nM | Cc1ccc([C@H]2C[C@@H]2COc2nc(C)ncc2-c2ccn(CC(F)F)c(=O)c2)nc1 [Example 106, 1-(2,2-difluoroethyl)-4-(2-methyl-4-(((1S,2S)-2-(5-methylpyridin-2-yl)cyclopropyl)methoxy)pyrimidin-5-yl)pyridin-2(1H)-one] |
| 1.83 nM | Cc1ccc([C@H]2C[C@@H]2COc2nc(C)ncc2-c2cc(C)c(=O)n(C)n2)nc1 [Example 65, 2,4-dimethyl-6-(2-methyl-4-(((1S,2S)-2-(5-methylpyridin-2-yl)cyclopropyl)methoxy)pyrimidin-5-yl)pyridazin-3(2H)-one] |
| 1.95 nM | CCn1c(C)c(-c2cnc(C)nc2OC[C@H]2C[C@@H]2c2ccc(C)cn2)ccc1=O [Example 4, 1-ethyl-6-methyl-5-(2-methyl-4-(((1S,2S)-2-(5-methylpyridin-2-yl)cyclopropyl)methoxy)pyrimidin-5-yl)pyridin-2(1H)-one] |
| 0.612 nM | COc1ccc([C@H]2C[C@@H]2COc2nc(C)ncc2-c2cc(=O)[nH]cc2C)nc1 [Example 77, 4-(4-(((1S,2S)-2-(5-methoxypyridin-2-yl)cyclopropyl)methoxy)-2-methylpyrimidin-5-yl)-5-methylpyridin-2(1H)-one] |
| 0.228 nM | Cc1ncc(-c2cc(=O)n(C)cn2)c(OC[C@H]2C[C@@H]2c2ccc3ccccc3n2)n1 [Example 140, 3-methyl-6-(2-methyl-4-(((1S,2S)-2-(quinolin-2-yl)cyclopropyl)methoxy)pyrimidin-5-yl)pyrimidin-4(3H)-one] |
| 1.7 nM | [2H]C([2H])([2H])n1cc(-c2cnc(C)nc2OC[C@H]2C[C@@H]2c2ccc(C)cn2)ccc1=O [Example 48, 1-methyl-5-(2-methyl-4-(((1S,2S)-2-(5-methylpyridin-2-yl)cyclopropyl)methoxy)pyrimidin-5-yl)pyridin-2(1H)-one] |
| 6.31 nM | Cc1ccc([C@H]2C[C@@H]2COc2nc(C)ncc2-c2cnn(C)c(=O)c2)nc1 [Example 135, 2-methyl-5-(2-methyl-4-(((1S,2S)-2-(5-methylpyridin-2-yl)cyclopropyl)methoxy)pyrimidin-5-yl)pyridazin-3(2H)-one] |
| 1.46 nM | COCCn1c(C)c(-c2cnc(C)nc2OC[C@H]2C[C@@H]2c2ccc(OC)cn2)ccc1=O [Example 30, 1-(2-methoxyethyl)-5-(4-(((1S,2S)-2-(5-methoxypyridin-2-yl)cyclopropyl)methoxy)-2-methylpyrimidin-5-yl)-6-methylpyridin-2(1H)-one] |
| 0.113 nM | COc1ccc([C@H]2C[C@@H]2COc2nc(C)ncc2-c2ccc(=O)n(C)c2C)nc1 [Example 27, 5-(4-(((1S,2S)-2-(5-methoxypyridin-2-yl)cyclopropyl)methoxy)-2-methylpyrimidin-5-yl)-1,6-dimethylpyridin-2(1H)-one] |
| 0.983 nM | Cc1ccc([C@H]2C[C@@H]2COc2nc(C)ncc2-c2ccc(=O)n(CC3CC3)c2)nc1 [Example 49, 1-(cyclopropylmethyl)-5-(2-methyl-4-(((1S,2S)-2-(5-methylpyridin-2-yl)cyclopropyl)methoxy)pyrimidin-5-yl)pyridin-2(1H)-one] |
| 1.25 nM | COc1ccc([C@H]2C[C@@H]2COc2nc(C)ncc2-c2ccn(C)c(=O)c2)nc1 [Example 70, 4-(4-(((1S,2S)-2-(5-methoxypyridin-2-yl)cyclopropyl)methoxy)-2-methylpyrimidin-5-yl)-1-methylpyridin-2(1H)-one] |
| 9.22 nM | Cc1ncc(-c2ccn(C)c(=O)c2)c(OC[C@H]2C[C@@H]2c2ccc(OC(F)F)cn2)n1 [Example 90, 4-(4-(((1S,2S)-2-(5-(difluoromethoxy)pyridin-2-yl)cyclopropyl)methoxy)-2-methylpyrimidin-5-yl)-1-methylpyridin-2(1H)-one] |
| 0.508 nM | C=CCn1ccc(-c2cnc(C)nc2OC[C@H]2C[C@@H]2c2ccc(C)cn2)cc1=O [Example 123, 1-allyl-4-(2-methyl-4-(((1S,2S)-2-(5-methylpyridin-2-yl)cyclopropyl)methoxy)pyrimidin-5-yl)pyridin-2(1H)-one] |
| 0.033 nM | Cc1ncc(-c2cc(=O)n(C)cc2C)c(OC[C@H]2C[C@@H]2c2ccc3c(n2)CCC3)n1 [Example 131, 4-(4-(((1S,2S)-2-(6,7-dihydro-5H-cyclopenta[b]pyridin-2-yl)cyclopropyl)methoxy)-2-methylpyrimidin-5-yl)-l,5-dimethylpyridin-2(1H)-one] |
| 0.048 nM | Cc1ncc(-c2ccc(=O)n(C(F)F)c2)c(OC[C@H]2C[C@@H]2c2ccc3ccccc3n2)n1 [Example 11, 1-(difluoromethyl)-5-(2-methyl-4-(((1S,2S)-2-(quinolin-2-yl)cyclopropyl)methoxy)pyrimidin-5-yl)pyridin-2(1H)-one] |
| 0.426 nM | Cc1ccc([C@H]2C[C@@H]2COc2nc(C)ncc2-c2cc(C#N)c(=O)n(C)c2C)nc1 [Example 59, 1,6-dimethyl-5-(2-methyl-4-(((1S,2S)-2-(5-methylpyridin-2-yl)cyclopropyl)methoxy)pyrimidin-5-yl)-2-oxo-1,2-dihydropyridine-3-carbonitrile] |
